Results taken from patent US20170107407A1, “ADHESIVE COMPOSITION AND POLARIZING PLATE COMPRISING SAME” (DONGWOO FINE-CHEM CO., LTD., priority 2014, published 2017).

Test: Evaluation of solubility in methyl ethyl ketone
Conditions: 1 g compound in 100 g methyl ethyl ketone, shaken 1 hour, left 24 hours at room temperature, visual
Method: Each compound (1 g) listed in Table 1 and methyl ethyl ketone (MEK, 100 g) were added to a 250 ml bottle and covered with a cap to inhibit the volatilization of the solvent.

Solubility | SMILES
∘ | CCOCCOCCOCC(=O)[O-].[Li+] [Formula A]
∘ | CCOCCOCCOCC(=O)[O-].[Na+] [Formula B]
∘ | CCCCOCCOCC(=O)[O-].[Na+] [Formula C]
